According to patent publication US7071297B2, “Tolerogenic peptides from myelin basic protein” (Apitope Technology (Bristol) Limited, priority 2002, dated 2006):
Like-named read-outs stand apart in the source and are kept apart here.

Legend:
[1] = test system: T cell clone MS60:D2; assay: Presentation of nested MBP peptides by fixed APC (Mgar cells) to T cell clone MS60:D2, proliferation assay; assay type: cell-based, human; settings: p-formaldehyde fixed Mgar (HLA-DR2+ve) cells, T cell clone MS60:D2, 3H-thymidine uptake, FIG. 1
[2] = test system: lymph node cells of HLA:DR2 transgenic mice; assay: Induction of tolerance in HLA:DR2 transgenic mouse, lymph node proliferation assay; assay type: in vivo
[3] = test system: T cell clone N5; assay: Presentation of MBP peptide 140-154 by fixed APC to T cell clone N5, proliferation assay; assay type: cell-based, human; settings: T cell clone N5, FIG. 2
Experimental: MBP-specific T cell lines (TCL) are generated from 8 MS patients and 2 healthy control donors. PBMC from each subject are separated as described above and plated out at 1×10^6 cells/ml in 6-well plates in the presence of MBP (50 μg/ml); a portion of PBMC from each subject is regularly frozen and stored for subsequent restimulations. Seven days later the cells are fed with fresh medium containing 2% IL-2 (Lymphocult-HT; Biotest LTD., Birmingham, UK), and on day 12 of culture all cells are restimulated with antigen, IL-2 and irradiated (2500 Rad) autologous PBMC as a source of antigen presenting cells (APC), at a cell ratio of 1T cell:5 APC. Cells are expanded in IL-2 every 3-4 days, and on day 14 are restimulated with antigen, IL-2 and PBMC, as described above. On the day of the first restimulation cells are examined for specific proliferation to MBP. Briefly, 2×10^4 T cells and 1×10^5 irradiated autologous PBMC are cultured in triplicate, in 96-well round-bottom plates, in the presence of MBP. […]
Live or p-formaldehyde fixed Mgar (HLA-DR2+ve) cells were incubated with peptides in serum or in serum alone, together with T cells. The T cell proliferative response was measured by ^3H-thymidine uptake as follows. […] [^3H]-Thymidine incorporation is determined using a Microbeta liquid scintillation counter (LKB-Wallac). […]

[4] = molecular target: T1, I-A^S (Mus musculus, UniProt P06345+P14437); settings: cited from earlier work
T1 sequence (P14437 1-233): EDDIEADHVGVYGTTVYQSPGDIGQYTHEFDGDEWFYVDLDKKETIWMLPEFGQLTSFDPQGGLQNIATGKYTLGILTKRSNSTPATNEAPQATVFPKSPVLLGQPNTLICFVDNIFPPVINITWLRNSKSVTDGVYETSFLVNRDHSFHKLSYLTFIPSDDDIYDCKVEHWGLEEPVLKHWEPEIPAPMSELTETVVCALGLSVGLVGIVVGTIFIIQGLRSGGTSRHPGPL
T1 sequence (P06345 28-263): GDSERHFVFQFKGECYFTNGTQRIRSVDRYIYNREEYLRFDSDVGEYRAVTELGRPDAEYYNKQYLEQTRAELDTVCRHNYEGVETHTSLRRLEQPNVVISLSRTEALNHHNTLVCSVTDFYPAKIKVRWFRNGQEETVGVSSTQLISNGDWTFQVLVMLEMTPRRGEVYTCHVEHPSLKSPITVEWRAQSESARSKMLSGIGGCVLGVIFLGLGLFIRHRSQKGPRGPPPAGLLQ

[5] = cited from earlier work; for induction of tolerance: administered in solution

AHKGFKGVDAQGTLS (listed as Homo sapiens) [MBP 137-151, myelin basic protein peptide 137-151]
presentation by fixed APC to T cells without further processing (apitope) [1]: apitopes

GFKGVDAQGTLSKIF (listed as Homo sapiens) [MBP 140-154, myelin basic protein peptide 140-154]
presentation by fixed APC to T cells without further processing (apitope) [1]: apitopes | SI values of the one pre-treated mouse that failed to show induction of tolerance ([2]; Group B, over peptide concentration range 1-150 ugml^-1): 12-15 | Stimulation Index (SI) median of lymphocyte proliferation ([2]; Group B: 100 ug peptide i.n. days -8, -6, -4, immunised with same peptide in CFA, restimulated with 150 ugml^-1 peptide): 3 | induction of tolerance ([2]; intranasal pre-treatment, lymphocytes from HLA-DR2 mice): induced tolerance | presentation by fixed APC without further processing [3]: can be presented by fixed APC without further processing

HKGFKGVDAQGTLSK (listed as Homo sapiens) [MBP 138-152, myelin basic protein peptide 138-152]
presentation by fixed APC to T cells without further processing (apitope) [1]: apitopes

KGFKGVDAQGTLSKI (listed as Homo sapiens) [MBP 139-153, myelin basic protein peptide 139-153]
presentation by fixed APC to T cells without further processing (apitope) [1]: apitopes

KSAHKGFKGVDAQGT (listed as Homo sapiens) [MBP 135-149, myelin basic protein peptide 135-149]
presentation by fixed APC to T cells without further processing (apitope) [1]: apitopes

MBP[89-101]: myelin basic protein (MBP) peptide 89-101, an immunodominant antigen after immunisation (PHLIRLFSRDAPG; UniProt P04370 89-101, looked up, fragment)
affinity of binding to I-A^S [4]: relatively high affinity | induction of tolerance [5]: not tolerogenic | induction of tolerance ([5]; listed as 89-101): ineffective at inducing tolerance | immunogenicity (priming for T cell reactivity and induction of EAE) ([5]; after immunisation): very effective immunogen

SAHKGFKGVDAQGTL (listed as Homo sapiens) [MBP 136-150, myelin basic protein peptide 136-150]
presentation by fixed APC to T cells without further processing (apitope) [1]: apitopes

YKSAHKGFKGVDAQG (listed as Homo sapiens) [MBP 134-148, myelin basic protein peptide 134-148]
presentation by fixed APC to T cells without further processing (apitope) [1]: apitopes
